Test results: paper PMC10298926, “Biophysical Characterization of the Binding Mechanism between the MATH Domain of SPOP and Its Physiological Partners” (International Journal of Molecular Sciences, 2023)
Where a SMILES comes first, the peptide text is derived from it.

Key:
SPOP MATH WT [1] = biological target: T1, SPOP MATH WT (Homo sapiens, UniProt O43791); assay: Equilibrium binding, FRET (Trp to dansyl), fluorescence titration; conditions: read-out: Equilibrium KD; dansylated peptide 0 to 40 µM; constant SPOP MATH WT (2 µM in methods, 1 µM in results); excitation 280 nm, emission 300-400 nm; 298 K; hyperbolic fit
Excerpt: The MATH domain of SPOP exerts its functions by specifically recognizing different substrates and, therefore, acting as an adaptor module between SPOP and its physiological ligands. In an effort to provide a complete characterization of SPOP MATH binding mechanisms, we investigated the recognition of three peptides mimicking a specific region of the substrates Puc (region 96–105), MacroH2A (region 166–179), and PTEN (region 354–368). […] Moreover, the three-dimensional structure of SPOP MATH in complexes with each of the peptides has been previously reported (3HQH, 3HQL, and 4OV1 PDB entries, respectively). Similar to previous work on other protein–protein recognition modules, we employed peptides carrying a covalently attached N-terminal dansyl fluorophore. Binding was then followed by measuring the FRET (Forster resonance energy transfer) between the three tryptophan residues of the SPOP MATH domain (donor) and the dansyl group of the peptides (acceptor).
To address the equilibrium binding affinity of SPOP MATH and its substrates, a fixed concentration of the protein (1 µM) was challenged with increasing peptide concentrations. In all cases, the fluorescence-monitored transition returned a hyperbolic behavior as described in the Section 4, which allowed estimating a dissociation constant of 1.4 ± 0.4 µM, 1.6 ± 0.2 µM, and 5.5 ± 0.5 µM for Puc, MacroH2A, and PTEN, respectively (Figure 2). These values appear partly consistent with what was previously reported by Zhuang et al. by using surface plasmon resonance. […]
Equilibrium binding experiments were performed on a Fluoromax-4 single-photon-counting spectrofluorometer (Jobin-Yvon, Newark, NJ, USA). The SPOP MATH domain was excited at 280 nm and emission spectra were recorded between 300 and 400 nm, at increasing dansylated peptide concentrations. […]

SPOP MATH WT [2] = biological target: T1, SPOP MATH WT; assay: Stopped-flow pseudo-first-order binding kinetics; conditions: 298 K
Protocol: To infer the mechanism of recognition of SPOP MATH, we resorted to performing time-resolved kinetic experiments. SPOP MATH was rapidly mixed with increasing concentrations of dansylated peptides (from 2 to 10 µM for Puc and MacroH2A, and from 2 to 40 µM for PTEN) in a stopped-flow apparatus at 298 K. The binding traces obtained by monitoring the time-resolved fluorescence were satisfactorily fitted to a single exponential equation, allowing calculating the observed rate constants kobs at different peptide concentrations. We then plotted the kobs values over the concentration of dansylated peptide and fitted the data to a simple linear function equation: kobs=kon Peptide+koff where kobs is the observed rate constant; kon and koff are the microscopic association and dissociation rate constants, respectively (Figure 2). The slope and y-axis intercept represent the microscopic association and dissociation rate constant, respectively. To minimize the error associated with the indirect measurement of the dissociation rate constant, we carried out displacement experiments to determine the koff values. The displacement experiments were designed by mixing the preformed complex SPOP MATH-dansylated peptides with a high excess of nondansylated peptide, as described in the Section 4. […] On the basis of these observations, it is possible to conclude that, in the case of binding to MacroH2A and PTEN, there is the presence of an additional step, which escapes detection by stopped-flow experiments and is likely to be negligible in the case of Puc. […] We note that such a case closely resembles the presence of a so-called burst phase, which is frequently observed in protein-folding studies.
Binding kinetic experiments were performed on an Applied Photophysics DX-17MV stopped-flow apparatus (Applied Photophysics, Leatherhead, UK). Pseudo-first-order binding experiments were performed by mixing a constant concentration (2 μM) of MATH domain with increasing dansylated peptides concentrations, from 2 to 10 μM of Puc and MacroH2A, and 2 to 40 µM of PTEN. The samples were excited at 280 nm, and the emission fluorescence was recorded by using a bandpass 320 nm cutoff filter. The experiments were performed at 298 K. For ionic strength dependence with Puc and MacroH2A, the buffers used were 50 mM sodium-HEPES, pH 7.2, supplemented with 50 mM, 100 mM, 200 mM, or 500 mM of sodium chloride (NaCl). For the PTEN binding salt dependence experiments, lower concentrations of salt were added for the previous buffer list mentioned (10 mM, 25 mM, and 50 mM of sodium chloride). For each acquisition, five traces were collected, averaged, and satisfactorily fitted to a single exponential equation.

SPOP MATH D131A = biological target: T2, SPOP MATH D131A (Homo sapiens, UniProt O43791, C159S/C23S/C44S/C68S/C93S/D130A); assay: Stopped-flow displacement; assay type: binding
T2 construct: engineered MATH domain of SPOP protein (residues 1–182); His-tag; made in house; host or cells: Escherichia coli BL21 (DE3)
Excerpt: (§1) To quantitatively address the role of specific residues in the binding mechanism of SPOP MATH, we resorted to taking advantage of the site-directed mutagenesis and generated ten site-directed mutants corresponding to the residues located in the binding pocket of the SPOP MATH domain. In particular, we produced a set of single mutants where residues R71, Y88, F103, Y124, F125, K130, D131, W132, F134, and K135 were substituted with alanine.
(§2) Microscopic dissociation rate constants (koff) were directly measured by performing displacement experiments on an Applied Photophysics DX-17MV stopped-flow apparatus (Applied Photophysics). A preincubated complex of MATH domain and dansylated peptides at a constant concentration (both 8 µM) was rapidly mixed with an excess of nondansylated peptides (50 μM). The samples were excited at 280 nm and fluorescence emission was collected by using a 330 ± 30 nm bandpass filter. The experiments were performed at 298 K in the same buffer used for the binding experiments. The observed rate constants were calculated from the average of five single traces. The observed kinetics were consistent with a single exponential decay.

SPOP MATH K135A = biological target: T3, SPOP MATH K135A (Homo sapiens, UniProt O43791, C159S/C44S/C68S/C93S/K134A); assay: Stopped-flow displacement; assay type: binding; conditions: displacement of dansylated Puc, 298 K
T3 construct: engineered MATH domain of SPOP protein (residues 1–182); His-tag; made in house; host or cells: Escherichia coli BL21 (DE3)
Excerpt: as §1, §2

SPOP MATH Y125A = SPOP MATH Y125A (Homo sapiens, UniProt O43791, Y123A, form not given); assay: Stopped-flow displacement; assay type: binding; conditions: displacement of dansylated Puc, 298 K
Excerpt: as §1, §2

T1 sequence (O43791 1-182): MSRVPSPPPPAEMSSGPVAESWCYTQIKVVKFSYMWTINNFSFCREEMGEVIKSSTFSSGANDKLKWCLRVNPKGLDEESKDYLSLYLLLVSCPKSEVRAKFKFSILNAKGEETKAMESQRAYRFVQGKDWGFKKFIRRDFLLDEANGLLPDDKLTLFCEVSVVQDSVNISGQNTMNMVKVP
T2 sequence (O43791 1-182 C23S/C44S/C68S/C93S/D130A/C159S): as the sequence (O43791 1-182) above, with C23S, C44S, C68S, C93S, D130A, C159S counted along it
Chain of SPOP MATH Y125A (O43791 1-182 Y123A, form open): as the sequence (O43791 1-182) above, with Y123A counted along it
T3 sequence (O43791 1-182 C44S/C68S/C93S/K134A/C159S): as the sequence (O43791 1-182) above, with C44S, C68S, C93S, K134A, C159S counted along it

CC(C)[C@H](NC(=O)[C@H](CCC(=O)O)NC(=O)[C@H](CC(=O)O)NS(=O)(=O)c1cccc2c(N(C)C)cccc12)C(=O)N[C@H](C(=O)N[C@@H](CO)C(=O)N[C@H](C(=O)N[C@H](C(=O)N[C@@H](CO)C(=O)N[C@@H](CO)C(=O)N[C@@H](CO)C(=O)O)[C@@H](C)O)[C@@H](C)O)[C@@H](C)O [Puc] (HELM PEPTIDE1{[CN(C)c1cccc2c(S(=O)(=O)[*:2])cccc12].D.E.V.T.S.T.T.S.S.S}$$$$V2.0)
Kd (SPOP MATH WT [1]): 1.4 ± 0.5 µM
Kd (SPOP MATH WT [2]; read-out: Kinetics KD, WT, from kon (pseudo-first-order) and koff (displacement)): 1.4 ± 0.4 µM
kon (SPOP MATH WT [2]; stopped-flow, 2 µM MATH domain, dansylated peptide 2 to 10 µM (Puc, MacroH2A) or 2 to 40 µM (PTEN), 50 mM sodium-HEPES, pH 7.2 (for ionic strength series), five traces averaged, slope of kobs vs peptide): 1.9e+07 ± 1e+06 M⁻¹ s⁻¹
koff (SPOP MATH D131A): 241 ± 1 s⁻¹
koff (SPOP MATH K135A): 45.2 ± 0.4 s⁻¹
koff (SPOP MATH Y125A): 78.0 ± 0.2 s⁻¹
